{"source": "patent US6653354B2", "about": "“NMDA antagonist comprising xenon” (priority 1999, dated 2003)", "key": {"[1]": {"system": "cortical neuronal-glial co-culture injured with glutamate", "experiment": "Glutamate-induced neuronal injury in neuronal-glial co-culture (LDH release)", "assay_type": "cell-based, mouse", "method": "Dissociated murine cortical cell cultures were prepared using whole cerebral neocortices from fetal mice (14-17 days of gestation). Cortical glial cell cultures were prepared from early postnatal mice. After halting non-neuronal cell division with cytosine arabinoside the surviving cortical neuronal cells were plated onto the glial cell background and co-cultured.\n15 days after originally harvesting the cortical cells, the co-culture plates were exposed at room temperature to glutamate 10-1,000 μM, in CCS from 10-30 minutes. After carefully washing out with CCS, the cells were incubated for 6-24 hours in a Eagle's minimal essential medium free of glutamate or lactate dehydrogenase (LDH) but supplemented with glucose 25 mM, and NaHCO3 38 mM at 37° C. in humidified CO2 (5%) atmosphere. The degree of injury was determined by measuring the LDH released into the medium. A dose-response curve of glutamate-induced injury is shown in FIG. 11, as described hereinbefore.\n75% of one atmosphere of xenon was delivered to the cells during and after exposure to 75 μM glutamate, a concentration which produces a near maximal injury. The degree of injury was determined by measuring the LDH released into the medium (after correcting for “baseline” LDH release). Xenon reduced the injury produced by glutamate by more than 35%; when xenon was continued after glutamate exposure, the injury was further reduced by more than 60%. The results of the protective effect of xenon are illustrated in FIG. 13, as described hereinbefore."}, "[2]": {"system": "rhesus monkeys", "conditions": "cited from earlier work"}, "[3]": {"conditions": "cited from earlier work"}}, "data": [{"smiles": "[Xe]", "note": "[xenon]", "values": [{"measurement": "protection against excitotoxicity (LDH release)", "setting": "[1]; 100 μM glutamate for 10 minutes, low, sub-anaesthetic concentrations of xenon, LDH after 6 hours", "result": "Highly significant protection"}, {"measurement": "reduction of the injury produced by glutamate (LDH release)", "setting": "[1]; 75% of one atmosphere xenon during exposure to 75 μM glutamate", "result": "more than 35%"}, {"measurement": "reduction of the injury produced by glutamate (LDH release)", "setting": "[1]; 75% xenon continued after 75 μM glutamate exposure", "result": "more than 60%"}, {"measurement": "gaseous concentration which prevents a response to a painful stimulus (MAC)", "setting": "[2]", "result": 98, "unit": "% atm"}, {"measurement": "Ostwald water/gas partition coefficient", "setting": "[3]; 37° C.", "result": 0.0887}, {"measurement": "Bunsen water/gas partition coefficient", "setting": "[3]; room temperature", "result": 0.0965}]}]}
